# Patent US20100251415A1, “Composition and Method for Modulating Plant Transformation” (priority 2009, published 2010)
# Legend:
# [1] = system: N. tabacum; assay: Calli regeneration under hygromycin selection after Agrobacterium-mediated transformation of leaves; assay type: in vivo, Nicotiana tabacum; details: for Calli regenerated and transplanted: total: 20 leaves transformed
# Procedure: Seeds of tobacco cultivar Big Havana were surface-sterilized with a solution containing 1% bleach and 0.05% Tween-80 for about 3 minutes and then rinsed twice with sterile distilled water for about 5 minutes. Surface-sterilized seeds were plated in 100 mm Petri dishes on sterile Whatman® filter paper submersed in 4 ml of liquid MS medium containing varying amounts of CeCl3, LaCl3 and a combination of CeCl3 and LaCl3 and the plants were transferred to a growth chamber for germination. Once germinated, the plants were removed from the growth chamber and grown for a period of one week under conditions of 16-hours light, 22° C. and 8-hours dark, 18° C. The three to five one week old plants were then removed from the 4-ml liquid medium and transferred to single sterile glass 250 ml flasks containing 15 ml of sterile liquid MS media supplemented with varying amounts of CeCl3, LaCl3 and a combination of CeCl3 and LaCl3. Flasks were then installed on shakers at 50-75 rpm. Plants were continuously grown under conditions of 16-hours light, 22° C. and 8-hours dark, 18° C. The growth medium in each flask was replaced weekly with 25 ml of fresh medium. Following a 3-week period, plants were removed from the flasks and 2 to 3 pairs of fully developed fresh leaves about 2-4 cm long were harvested (cut from the plant) for transformation with Agrobacteria.
# Experimental groups of tobacco plants were germinated and grown in a liquid medium culture supplemented with varying amounts of CeCl3, LaCl3 and a combination of CeCl3 and LaCl3. Control plants for the transformation experiments were grown in a standard MS-medium that was not supplemented with CeCl3 or LaCl3.
# Four weeks post-germination, the tobacco plants were removed from the liquid medium culture. The leaves from the plants were removed, and several parallel incisions were made along the leaves. The leaves were then vacuum infiltrated with an Agrobacterium suspension culture carrying the plasmid with LUC (gene coding for luciferase) and hygromycin (gene coding for the resistance to hygromycin) genes.
# The leaves were vacuum-infiltrated twice for about 5 minutes with the Agrobacterium suspension culture using standard procedures known in the art. Following vacuum infiltration, the tobacco leaves were dried for about 5 to 10 minutes on sterile Whatman® filter paper to remove substantially all excess Agrobacterium cells. The leaves were then placed on plates containing MS medium, and each of the plates were placed for in a room for a period of 3 day at a temperature of 22° C. and exposed to a daily regime of 16-hours of light and 8-hours of dark.
# Leaves from each of the experimental groups grown on the different media compositions having varying amounts of CeCl3, LaCl3 and a combination of CeCl3 and LaCl3 and the controls were washed with sterile water to remove the […]. To remove traces of growth medium, leaves were blotted on sterile filter paper and then submersed in a Petri dish laid out with Whatman® filter paper containing re-suspended Agrobacterium cells. Each submersed leaf surface was incised using a sharp surgical blade in parallel along the side veins. The distance between the two parallel incisions was about 5-7 mm. The primary leaf vein and leaf margins were left intact. Once cutting was complete, leaves remained submersed for a period of about 10 minutes. Leaves were then removed from the Petri dish and were blotted dry and placed upside-down on plates of MS medium, and were incubated in a dark room at 22° C. for a period of 3 days. Following incubation, leaves were removed from the plates and rinsed with sterile distilled water, blotted dry and transferred onto solid MS medium containing 0.8 mg/L of indole-3-acetic acid (IAA), and 2 mg/L kinetin for calli induction and regeneration, a combination of 100 mg/L ticarcillin and 3 mg/L potassium clavulanate to control Agrobacterium growth, and 25 mg/L hygromycin for selection for transformed cells. […]
# [2] = system: N. tabacum; assay: Stable T-DNA integration: LUC expression test of regenerated plantlets; assay type: in vivo, Nicotiana tabacum; details: for Calli regenerated and transplanted, LUC expression test: LUC negative / Calli regenerated and transplanted, LUC expression test: LUC positive: 20 leaves transformed
# Procedure: The number of transgenic plants, having incorporated a marker gene, regenerated from tobacco calli in various transformation experiments were counted. All the regenerated plants were screened using a luciferase camera. Spraying the transgenic plants with luciferine, the substrate for luciferase enzyme, allowed the identification of transgenic plants expressing the luciferase.
# After a period of about 3 to 4 weeks, the number of regenerated calli were determined. Shoots that developed were excised from calli and transferred to a root inducing solid MS medium containing 0.5 mg/L of naphtaleneacetic acid (NAA), 100 mg/L ticarcillin, 3 mg/L potassium clavulanate and 25 mg/L hygromycin. After a 1 to 2 week period of root induction, the plantlets were transplanted to soil.
# The effects of CeCl3 on the occurrence of stable plant transformation events in N. tabacum plants were evaluated. These experiments identified transformed plants where the DNA of interest had stably integrated into the plant genome.
# The newly appeared plantlets regenerated from the calli of Example 3, showing evidence of root formation, were excised from the calli and transferred to soil.
# Plantlets were sprayed with luciferine, and the total number of luciferase-positive plantlets was scored. This allowed the calculation of the transformation frequency, as the number of plants expressing LUC gene to the number of transformed leaves, shown in FIG. 4.
# The number of stable transformants re-generated from plants grown on CeCl3 supplemented media and control medium, as detailed in Example 3, were compared.
# [3] = 0.1 μM CeCl3, liquid MS, Table 2 experiment
# [4] = 0.1 μM CeCl3, liquid MS, second independent experiment (Table 3)
# [5] = 0.5 μM CeCl3, liquid MS, Table 2 experiment
# [6] = 1.0 μM CeCl3, liquid MS, second independent experiment (Table 3)
smiles,measurement,setting,value
"[Ce+3].[Cl-].[Cl-].[Cl-] [CeCl3, cerium (III) chloride]",increase in the number of calli regenerated compared to the control medium,"[1]; 0.1 μM CeCl3, Table 2 experiment",1.8 fold
same,Calli regenerated and transplanted: total,[1]; [3],35
same,Calli regenerated and transplanted: total,[1]; [4],48
same,increase in the number of calli regenerated compared to the control medium,"[1]; 0.1 μM CeCl3, second independent experiment (Table 3, FIG. 4)",2.2 fold
same,increase in the number of calli regenerated compared to the control medium,"[1]; 0.5 μM CeCl3, Table 2 experiment",2.9 fold
same,Calli regenerated and transplanted: total,[1]; [5],56
same,Calli regenerated and transplanted: total,[1]; [6],73
same,increase in the number of calli regenerated compared to the control medium,"[1]; 1.0 μM CeCl3, second independent experiment (Table 3, FIG. 4)",3.3 fold
same,difference in numbers of stable transformants versus control media,"[2]; 0.1 μM CeCl3, FIG. 4",2.0 fold
same,"Calli regenerated and transplanted, LUC expression test: LUC negative",[2]; [3],13
same,"Calli regenerated and transplanted, LUC expression test: LUC positive",[2]; [3],23
same,"Calli regenerated and transplanted, LUC expression test: LUC negative",[2]; [4],13
same,"Calli regenerated and transplanted, LUC expression test: LUC positive",[2]; [4],34
same,Integration frequency,[2]; [3],1.15 LUC positive plants/leaf trans
same,Integration frequency,[2]; [4],1.7 LUC positive plants/leaf trans
same,"Calli regenerated and transplanted, LUC expression test: LUC negative",[2]; [5],18
same,"Calli regenerated and transplanted, LUC expression test: LUC positive",[2]; [5],38
same,Integration frequency,[2]; [5],1.9 LUC positive plants/leaf trans
same,difference in numbers of stable transformants versus control media,"[2]; 1.0 μM CeCl3, FIG. 4",3.4 fold
same,"Calli regenerated and transplanted, LUC expression test: LUC negative",[2]; [6],18
same,"Calli regenerated and transplanted, LUC expression test: LUC positive",[2]; [6],57
same,Integration frequency,[2]; [6],2.85 LUC positive plants/leaf trans
